According to patent EP4667483A1, “HUMAN TRANSFERRIN RECEPTOR-BINDING PEPTIDE” (JCR Pharmaceuticals Co., Ltd., priority 2023, dated 2024):
Numbered stars: 1 amine (or outer) side, 2 acyl side, 3 side chain; on linkers, the order of the positions; unused ones are H or OH. Bridge positions count the residues as written; N and C are the ends. Square brackets hold non-standard residues; d marks the D form. Peptide text beside a SMILES is read from it. * marks the point of attachment. Ala(imidazo(1,2-a)pyr3yl) = N[C@@H](Cc1cnc2ccccn12)C(=O)O; Trp(1-CH2COOH) = N[C@@H](Cc1cn(CC(=O)O)c2ccccc12)C(=O)O; NMePhe(4-COOH) = CN[C@@H](Cc1ccc(C(=O)O)cc1)C(=O)O; Ala(2-NH2-4-pyridyl) = Nc1cc(C[C@H](N)C(=O)O)ccn1; NH(CH2CH2O)8Me = COCCOCCOCCOCCOCCOCCOCCOCCN*; NMePhe(3-Cl) = CN[C@@H](Cc1cccc(Cl)c1)C(=O)O; X5 = COc1cc(C[C@H](N[*:1])C(=O)[*:2])ccn1; 3Pal(6-NH2) = Nc1ccc(C[C@H](N)C(=O)O)cn1; NMeY = CN[C@@H](Cc1ccc(O)cc1)C(=O)O; Nva(3-Et) = CCC(CC)[C@H](N)C(=O)O; 4Pal = N[C@@H](Cc1ccncc1)C(=O)O; PEG4 = NCCOCCOCCOCCOCCC(=O)O; Carboxymethyl = O=C(O)C*

Assays:
[1] = biological target: T1, human transferrin receptor (hTfR) (Homo sapiens, UniProt P02786); experiment: SPR measurement under pH 7.4 conditions (Biacore T200, CM3 chip, hTfR captured by His Tag antibody); type: binding; conditions: read-out: hTfR SPR pH7.4 KD
[2] = biological target: T1, human transferrin receptor (hTfR); experiment: SPR measurement under pH 6.0 conditions (Biacore T200, NTA chip, immobilized hTfR); type: binding; conditions: read-out: hTfR SPR pH6.0 KD
[3] = SPR, pH 7.4, peptide with the linker named in the table
[4] = SPR, pH 6.0, peptide with the linker named in the table

T1 sequence (P02786 whole entry): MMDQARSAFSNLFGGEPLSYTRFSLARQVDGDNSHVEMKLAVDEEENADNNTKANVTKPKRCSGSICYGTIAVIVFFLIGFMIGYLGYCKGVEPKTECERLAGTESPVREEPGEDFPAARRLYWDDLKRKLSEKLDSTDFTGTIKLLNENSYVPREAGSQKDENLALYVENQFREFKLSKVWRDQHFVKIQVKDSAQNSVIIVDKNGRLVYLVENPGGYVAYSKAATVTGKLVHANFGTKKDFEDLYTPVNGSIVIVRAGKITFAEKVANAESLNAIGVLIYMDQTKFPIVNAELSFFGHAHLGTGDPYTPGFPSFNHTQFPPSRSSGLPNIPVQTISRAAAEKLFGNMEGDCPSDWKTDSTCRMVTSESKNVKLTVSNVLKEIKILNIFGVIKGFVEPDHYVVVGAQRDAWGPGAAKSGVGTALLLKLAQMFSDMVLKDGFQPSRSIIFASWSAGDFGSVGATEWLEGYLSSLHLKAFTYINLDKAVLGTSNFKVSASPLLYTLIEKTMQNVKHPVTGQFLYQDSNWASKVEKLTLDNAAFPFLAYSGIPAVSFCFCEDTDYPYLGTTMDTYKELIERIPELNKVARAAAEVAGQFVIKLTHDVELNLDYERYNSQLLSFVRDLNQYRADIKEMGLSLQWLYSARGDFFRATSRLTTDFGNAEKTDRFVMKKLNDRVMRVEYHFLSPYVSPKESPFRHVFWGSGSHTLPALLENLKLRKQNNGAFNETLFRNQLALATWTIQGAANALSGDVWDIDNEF

A Kd ([1]; pH 7.4, single-cycle kinetics) of 6500 nM and a Kd ([2]; pH 6.0, single-cycle kinetics) of 1780 nM were found for `CCC(CC)[C@@H]1NC(=O)[C@H](Cc2ccc(OCC(=O)O)cc2)NC(=O)[C@H](Cc2ccc(N)nc2)NC(=O)[C@H](CC(N)=O)NC(=O)[C@H](Cc2cn(CC(=O)O)c3ccccc23)NC(=O)[C@H](C(C)C)NC(=O)[C@H](Cc2cccc(Cl)c2)N(C)C(=O)[C@H](C(C)C)NC(=O)[C@H](C)NC(=O)CSC[C@@H](C(=O)NCCOCCOCCOCCOCCC(N)=O)NC(=O)[C@H](Cc2ccc(C(=O)O)cc2)N(C)C(=O)[C@H](Cc2ccncc2)NC(=O)[C@H](CCCNC(=N)N)NC(=O)[C@H](CCC(=O)NCCOCCOCCOCCOCCOCCOCCOCCOC)NC(=O)[C@H]([C@@H](C)CC)NC1=O` [compound 50] ({CH2CO}-AV[NMePhe(3-Cl)]V[Trp(1-CH2COOH)]N[3Pal(6-NH2)]Y(Carboxymethyl)[Nva(3-Et)]IE(NH(CH2CH2O)8Me)R[4Pal][NMePhe(4-COOH)]C[PEG4]-NH2; thioether N-15) in this work.
A Kd ([1]; pH 7.4, single-cycle kinetics) of 1.46 nM and a Kd ([2]; pH 6.0, single-cycle kinetics) of 9.57 nM were found for `CC[C@H](C)[C@@H]1NC(=O)[C@H](Cc2ccc(OC)cc2)NC(=O)[C@H](Cc2ccc(N)nc2)NC(=O)[C@H](CC(N)=O)NC(=O)[C@H](Cc2c[nH]c3ccccc23)NC(=O)[C@H](C(C)C)NC(=O)[C@H](Cc2cccc(Cl)c2)N(C)C(=O)[C@H](C(C)C)NC(=O)[C@H](C)NC(=O)CSC[C@@H](C(=O)NCCOCCOCCOCCOCCC(N)=O)NC(=O)[C@H](Cc2ccc(C(=O)O)cc2)N(C)C(=O)[C@H](Cc2ccncc2)NC(=O)[C@H](CCCNC(=N)N)NC(=O)[C@H](CCCCN)NC(=O)[C@H]([C@@H](C)CC)NC1=O` [compound 59] ({CH2CO}-AV[NMePhe(3-Cl)]VWN[3Pal(6-NH2)]Y(Me)IIKR[4Pal][NMePhe(4-COOH)]C[PEG4]-NH2; thioether N-15) in this work.
A Kd ([1]; pH 7.4, single-cycle kinetics) of 5.43 nM and a Kd ([2]; pH 6.0, single-cycle kinetics) of 56.5 nM were found for `CC[C@H](C)[C@@H]1NC(=O)[C@H](Cc2ccc(OC)cc2)NC(=O)[C@H](Cc2ccc(N)nc2)NC(=O)[C@H](CC(N)=O)NC(=O)[C@H](Cc2cnc3ccccn23)NC(=O)[C@H](C(C)C)NC(=O)[C@H](Cc2cccc(Cl)c2)N(C)C(=O)[C@H](C(C)C)NC(=O)[C@H](C)NC(=O)CSC[C@@H](C(=O)NCCOCCOCCOCCOCCC(N)=O)NC(=O)[C@H](Cc2ccc(O)cc2)N(C)C(=O)[C@H](Cc2ccncc2)NC(=O)[C@H](CCCNC(=N)N)NC(=O)[C@H](CCCNC(=N)N)NC(=O)[C@H]([C@@H](C)CC)NC1=O` [compound 65] ({CH2CO}-AV[NMePhe(3-Cl)]V[Ala(imidazo(1,2-a)pyr3yl)]N[3Pal(6-NH2)]Y(Me)IIRR[4Pal][NMeY]C[PEG4]-NH2; thioether N-15) in this work.
A Kd [1, 3] of 11.5 nM and a Kd [2, 4] of 95 nM were found for `CCC(CC)[C@@H]1NC(=O)[C@H](Cc2ccc(OCC(=O)O)cc2)NC(=O)[C@H](Cc2ccc(O)cc2)NC(=O)[C@H](CC(N)=O)NC(=O)[C@H](Cc2cn(CC(=O)O)c3ccccc23)NC(=O)[C@H](C(C)C)NC(=O)[C@H](Cc2cccc(Cl)c2)N(C)C(=O)[C@H](C(C)C)NC(=O)[C@H](C)NC(=O)CSC[C@@H](C(=O)NCCOCCOCCOCCOCCC(N)=O)NC(=O)[C@H](Cc2ccc(O)cc2)N(C)C(=O)[C@H](Cc2ccnc(OC)c2)NC(=O)[C@H](CCCNC(=N)N)NC(=O)[C@H](CCC(N)=O)NC(=O)[C@H]([C@@H](C)CC)NC1=O` [compound 103] ({CH2CO}-AV[NMePhe(3-Cl)]V[Trp(1-CH2COOH)]NYY(Carboxymethyl)[Nva(3-Et)]IQR[X5][NMeY]C[PEG4]-NH2; thioether N-15) in this work.
A Kd [1, 3] of 10.7 nM and a Kd [2, 4] of 78.2 nM were found for `CCC(CC)[C@@H]1NC(=O)[C@H](Cc2ccc(OCC(=O)O)cc2)NC(=O)[C@H](Cc2ccc(O)cc2)NC(=O)[C@H](CC(N)=O)NC(=O)[C@H](Cc2cn(CC(=O)O)c3ccccc23)NC(=O)[C@H](C(C)C)NC(=O)[C@H](Cc2cccc(Cl)c2)N(C)C(=O)[C@H](C(C)C)NC(=O)[C@H](C)NC(=O)CSC[C@@H](C(=O)NCCOCCOCCOCCOCCC(N)=O)NC(=O)[C@H](Cc2ccc(O)cc2)N(C)C(=O)[C@H](Cc2ccnc(N)c2)NC(=O)[C@H](CCCNC(=N)N)NC(=O)[C@H](CCC(N)=O)NC(=O)[C@H]([C@@H](C)CC)NC1=O` [compound 104] ({CH2CO}-AV[NMePhe(3-Cl)]V[Trp(1-CH2COOH)]NYY(Carboxymethyl)[Nva(3-Et)]IQR[Ala(2-NH2-4-pyridyl)][NMeY]C[PEG4]-NH2; thioether N-15) in this work.
